We go through 8 compounds from paper PMC7781899, “Synthesis of some quinazolinones inspired from the natural alkaloid L-norephedrine as EGFR inhibitors and radiosensitizers” (Journal of Enzyme Inhibition and Medicinal Chemistry, 2020).

SMILES strings stand for the structures. Where only a bound is given, the exact number is not on record here.

One data set has as its target T1, EGFR (Homo sapiens, UniProt P00533).
T1 construct: purchased Invitrogen
Briefly: EGFR kinase assay. The data set is classed as biochemical. The settings on record: EGFR-TK inhibitory assay; means ± SE, three repeats. Here is the method:
An ATP solution and a kinase/peptide mixture were developed just before use. […] Then, […] of the prepared solution was added to each well. The plate was incubated for 1 h and determined by an ELISA Reader (PerkinElmer, USA). Curve fitting using Graph Pad Prism 5 was constructed. Each experiment was repeated three times. IC50 was represented as means ± SE.

Data set [1] deals with MCF-7. The experiment in a line: MTT cytotoxicity assay, MCF-7. The data set is classed as cell-based, human. The settings on record: for IC50: Homo sapiens, MCF7, MTT assay, mean of three experiments ± SE, read-out: IC50 MCF-7. Here is the method:
(§1) The 96-well plate was incubated for 24 h before the MTT assay. […] Cells were cultured using DMEM supplemented with 10% foetal bovine serum, 10 µg/mL insulin and 1% penicillin–streptomycin. Reconstituted MTT (10%) was added and incubated for 2 h. Formazan crystals were dissolved by the MTT solubilizing solution after incubation. Absorbance was measured at a wavelength of 570 nm[28].

In data set [2] the test system is MDA-MB-231. The experiment in a line: MTT cytotoxicity assay, MDA-MB-231. It is filed as cell-based, human. The note with it: for IC50: Homo sapiens, MDA-MB-231, MTT assay, mean of three experiments ± SE, read-out: IC50 MDA-MB-231. Here is the method: as §1
Data set [3] has as its system HCT-116. The experiment in a line: MTT cytotoxicity assay, HCT-116. It is filed as cell-based, human. The settings on record: for IC50: Homo sapiens, HCT-116, MTT assay, mean of three experiments ± SE, read-out: IC50 HCT-116. As to the method: as §1
Data set [4] relates to HepG-2. The experiment in a line: MTT cytotoxicity assay, HepG-2. The data set is classed as cell-based, human. The note with it: for IC50: Homo sapiens, HepG2, MTT assay, mean of three experiments ± SE, read-out: IC50 HepG-2. Here is the method: as §1
For data set [5], the system named is HCT-116. The experiment in a line: Radiosensitizing evaluation, HCT-116. The data set is classed as cell-based. The settings on record: Homo sapiens, HCT-116, light or radiation study, 48 h; single dose of 8 Gy gamma radiation; measured two days after irradiation. As to the method:
(§2) Irradiation was performed at the National Centre for Radiation Research and Technology (NCRRT), Egyptian Atomic Energy Authority, using Gamma cell-40 (^137Cs) source. The promising compounds 5 and 6 were selected to be re-evaluated for in vitro cytotoxic activity after the cells containing the compounds were gamma-irradiated at a dose level of 8 Gy with a dose rate of 0.758 rad/s for 17.59 min. Cytotoxicity was measured two days after irradiation. The IC50 of the tested compounds is calculated using GraphPad Prism 5.

In data set [6] the test system is MDA-MB-231, MCF-7, HepG-2 and HCT-116 human cancer cell lines. The experiment in a line: MTT assay, panel of cancer cell lines. The data set is classed as cell-based. The settings on record: range over MDA-MB-231, MCF-7, HepG-2, HCT-116, read-out: IC50 against all the cell lines. Here is the method:
as §1

Data set [7] has as its system MCF-7. Briefly: Radiosensitizing evaluation, MCF-7. The settings on record: Homo sapiens, MCF7, light or radiation study, 48 h; single dose of 8 Gy gamma radiation; measured two days after irradiation. It is filed as cell-based. As to the method: as §2
In data set [8] the test system is MDA-MB-231. Briefly: Radiosensitizing evaluation, MDA-MB-231. The data set is classed as cell-based. The note with it: Homo sapiens, MDA-MB-231, light or radiation study, 48 h; single dose of 8 Gy gamma radiation; measured two days after irradiation. Here is the method: as §2
Data set [9] concerns MDA-MB-231 cells. The experiment in a line: Cell cycle analysis by flow cytometry (PI). The note with it: 0.76 μM, 24 h. The data set is classed as cell-based, human. As to the method:
The MDA-MB-231 cells (10^5/well) were incubated with compound 5 at its IC50. After 24 h, the cells were washed twice with PBS, then collected and fixed with ice-cold ethanol 70% (v/v). The cells were re-suspended with 0.1 mg/mL RNase, stained with […] PI and examined using flow cytometry (FACScalibur-Becton Dickinson).

The subject of data set [10] is HepG-2. Briefly: Radiosensitizing evaluation, HepG-2. The data set is classed as cell-based. The note with it: Homo sapiens, HepG2, light or radiation study, 48 h; single dose of 8 Gy gamma radiation; measured two days after irradiation. As to the method: as §2
Data set [11] relates to MDA-MB-231 cells. Briefly: Apoptotic assay, Annexin V-FITC/PI. It is filed as cell-based, human. The note with it: 0.76 μM, 24 h. As to the method:
Cells were prepared as previously mentioned. Treatment of cells (10^5) with Annexin V-FITC and propidium iodide (PI) was by apoptosis detection kit [BD Biosciences, San Jose, CA]. The binding of Annexin V-FITC and PI was examined using flow cytometry FACScalibur (BD Biosciences, San Jose, CA). CellQuest software was used for performing quadrant analysis of co-ordinate dot plots.

Data set [12] has as its system MCF-10A normal breast cell line. The experiment in a line: MTT cytotoxicity assay, MCF-10A normal cells. The data set is classed as cell-based. The settings on record: Homo sapiens. As to the method:
as §1

Data set [13] relates to MDA-MB-231, MCF-7, HCT-116, HepG-2. The experiment in a line: Radiosensitizing evaluation, all tested cell lines. The data set is classed as cell-based. The note with it: Homo sapiens, light or radiation study; single dose of 8 Gy gamma radiation; read-out: IC50 on all the tested cell lines after irradiation. As to the method:
as §2

[14] abbreviates: relative to MCF-10A normal cells.

T1 sequence (P00533 25-1210): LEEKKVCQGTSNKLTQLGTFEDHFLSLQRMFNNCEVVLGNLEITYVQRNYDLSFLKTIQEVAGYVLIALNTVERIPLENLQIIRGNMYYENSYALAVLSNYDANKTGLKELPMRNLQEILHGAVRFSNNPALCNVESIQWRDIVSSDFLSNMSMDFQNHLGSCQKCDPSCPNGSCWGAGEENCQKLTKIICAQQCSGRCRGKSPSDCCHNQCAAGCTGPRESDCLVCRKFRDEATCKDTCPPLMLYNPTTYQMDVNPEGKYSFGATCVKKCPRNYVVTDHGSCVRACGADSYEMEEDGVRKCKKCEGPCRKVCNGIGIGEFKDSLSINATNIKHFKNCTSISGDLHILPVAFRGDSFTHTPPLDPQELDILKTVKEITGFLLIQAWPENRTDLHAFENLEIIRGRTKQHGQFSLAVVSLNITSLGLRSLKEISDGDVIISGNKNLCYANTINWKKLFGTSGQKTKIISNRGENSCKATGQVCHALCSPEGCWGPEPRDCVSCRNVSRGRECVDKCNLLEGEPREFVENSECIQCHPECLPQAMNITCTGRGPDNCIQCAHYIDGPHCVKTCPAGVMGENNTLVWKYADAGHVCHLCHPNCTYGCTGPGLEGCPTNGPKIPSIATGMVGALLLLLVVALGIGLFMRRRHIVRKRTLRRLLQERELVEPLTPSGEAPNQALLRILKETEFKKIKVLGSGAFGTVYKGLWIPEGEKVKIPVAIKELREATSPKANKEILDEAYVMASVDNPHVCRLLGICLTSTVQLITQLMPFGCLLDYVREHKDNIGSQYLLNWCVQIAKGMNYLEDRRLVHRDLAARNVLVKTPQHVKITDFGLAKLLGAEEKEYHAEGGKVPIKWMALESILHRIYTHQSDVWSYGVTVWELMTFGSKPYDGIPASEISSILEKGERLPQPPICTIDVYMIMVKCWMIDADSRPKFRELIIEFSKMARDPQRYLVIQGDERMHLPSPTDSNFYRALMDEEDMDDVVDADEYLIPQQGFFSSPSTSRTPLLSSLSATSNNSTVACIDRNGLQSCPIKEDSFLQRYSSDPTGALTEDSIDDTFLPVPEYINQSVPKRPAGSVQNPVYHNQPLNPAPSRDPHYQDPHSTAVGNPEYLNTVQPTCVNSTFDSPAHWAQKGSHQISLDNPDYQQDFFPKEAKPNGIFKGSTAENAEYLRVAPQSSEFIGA

As to `CC1Nn2c(nc3ccccc3c2=O)SC1c1ccccc1` (centres unmarked) [Compound 10, 3-methyl-2-phenyl-3,4-dihydro-[1,3,4]thiadiazino[2,3-b]quinazolin-6(2H)-one], the IC50 on EGFR stood at 3.09 ± 0.2 µM; in the data set on MCF-7 [1] it was 37.31 ± 0.29 µM; in the data set on MDA-MB-231 [2], 21.86 ± 0.04 µM; with HCT-116 [3], 46.3 ± 0.63 µM; in the data set with HepG-2 [4], 35.6 ± 0.36 µM.

As for `CC1C(c2ccccc2)Oc2nc3ccccc3c(=O)n2C(C)C(c2ccccc2)Oc2nc3ccccc3c(=O)n21` (centres unmarked) [Compound 17, 8,18-dimethyl-7,17-diphenyl-7,8,17,18-tetrahydro-[1,6,3,8]dioxadiazecino[2,3-b:7,8-b']diquinazoline-10,20-dione], the IC50 against EGFR was 1.02 ± 0.05 µM; with MCF-7 [1], 20.1 ± 0.27 µM; with MDA-MB-231 [2] it was 5.45 ± 0.06 µM; in the data set with HCT-116 [3], 18.4 ± 0.2 µM; in the data set on HepG-2 [4], 24.3 ± 0.18 µM.

`CC1Nn2c(nc3ccccc3c2=O)OC1c1ccccc1` (centres unmarked) [Compound 9, 3-Methyl-2-phenyl-3,4-dihydro-[1,3,4]oxadiazino[2,3-b]quinazolin-6(2H)-one]: the half-maximal inhibitory concentration (IC50) was 9.78 ± 0.31 µM at EGFR; > 100 µM in the data set on MCF-7 [1]; 84.15 ± 0.62 µM in the data set on MDA-MB-231 [2]; 90.54 ± 0.73 µM in the data set with HCT-116 [3]; > 100 µM with HepG-2 [4].

With `CC1C(c2ccccc2)Oc2nc3ccccc3c(=O)n21` (centres unmarked) [Compound 15, 3-Methyl-2-phenyl-2H-oxazolo[2,3-b]quinazolin-5(3H)-one], the concentration for half-maximal inhibition (IC50) came out at 1.09 ± 0.12 µM on EGFR; 19.67 ± 0.13 µM in the data set on MCF-7 [1]; 2.41 ± 0.03 µM with MDA-MB-231 [2]; 26.51 ± 0.17 µM with HCT-116 [3]; 28.5 ± 0.4 µM with HepG-2 [4].

Consider `CC1C(c2ccccc2)Sc2nc3ccccc3c(=O)n21` (centres unmarked) [Compound 8, 3-Methyl-2-phenyl-2H-thiazolo[2,3-b]quinazolin-5(3H)-one], for which the half-maximal inhibitory concentration (IC50) at EGFR came out at 3.74 ± 0.17 µM; in the data set with MCF-7 [1] it was 70.1 ± 0.87 µM; with MDA-MB-231 [2], 38.19 ± 0.38 µM; in the data set with HCT-116 [3] it was 49.22 ± 0.49 µM; in the data set on HepG-2 [4], 47.32 ± 0.47 µM.

Consider `CC(Nc1nc2ccccc2c(=O)n1C(C)C(O)c1ccccc1)C(O)c1ccccc1` (centres unmarked) [Compound 18, 3-(1-hydroxy-1-phenylpropan-2-yl)-2-(1-hydroxy-1-phenylpropan-2-ylamino)quinazolin-4(3H)-one], for which the IC50 is 0.99 ± 0.04 µM against EGFR; 62.59 ± 0.18 µM with MCF-7 [1]; 62.94 ± 0.1 µM in the data set with MDA-MB-231 [2]; 44.9 ± 0.52 µM in the data set on HCT-116 [3]; 50 ± 0.13 µM in the data set with HepG-2 [4].

`CSc1nc2ccccc2c(=O)n1C(C)C(O)c1ccccc1` (centres unmarked) [Compound 5, 3-(1-Hydroxy-1-phenylpropan-2-yl)-2-(methylthio)quinazolin-4(3H)-one]: the melting point came to 121.5 °C. Besides, in the data set with HCT-116 [5], the IC50 was found to be 2.28 ± 0.41 µM. In addition, the half-maximal inhibitory concentration (IC50) in data set [6] lay within 1.53 to 5.76 µM. This compound registered an IC50 against EGFR of 0.76 ± 0.1 µM. The IC50 with MCF-7 [7] was 2.35 ± 0.18 µM. Besides, in the data set with MDA-MB-231 [8], the IC50 was 0.78 ± 0.15 µM. For the same compound, the IC50 in the data set with MCF-7 [1] amounted to 5.43 ± 0.14 µM. The “Selectivity index (SI) MCF-7” value in the data set with MCF-7 [1] (setting [14]) was determined as 11.39. Further, in the data set on MDA-MB-231 cells [9], the “% G2-M” value was determined as 40.39%, the “% Pre-G1” value stood at 19.23%, the “% S” value is on record as 34.84% and the “%G0-G1” value is 24.77%. Further, the “rise of percentage of cells at pri-G1 phase over control” value in the data set on MDA-MB-231 cells [9] is listed as 10 folds. Further, the IC50 in the data set with MDA-MB-231 [2] turned out to be 1.53 ± 0.01 µM. Moreover, in the data set with MDA-MB-231 [2] (setting [14]), the “Selectivity index (SI) MDA-MB-231” value was 40.42. Besides, in the data set on HepG-2 [10], the half-inhibitory concentration (IC50) worked out at 2.34 ± 0.23 µM. The IC50 with HCT-116 [3] stood at 5.76 ± 0.11 µM. Besides, in the data set with HCT-116 [3] (setting [14]), the “Selectivity index (SI) HCT-116” value is on record as 10.74. In the data set with MDA-MB-231 cells [11], the “Apoptotic assay % Early” value came to 7.36%, the “Apoptotic assay % Late” value came to 11.74%, the “Apoptotic assay % Necrosis” value came out at 3.84% and the “Apoptotic assay % Total” value came out at 22.94%. For the same compound, in the data set on MDA-MB-231 cells [11], the “apoptosis over the control” value is “more than 12 folds”. The same compound came in with a concentration for half-maximal inhibition (IC50) in data set [12] of 61.9 ± 2.14 µM. In addition, in the data set with HepG-2 [4], the 50% inhibitory concentration (IC50) turned out to be 4.14 ± 0.03 µM. The “Selectivity index (SI) HepG-2” value in the data set on HepG-2 [4] (setting [14]) came to 14.93. In data set [13], the IC50 was < 5 µM.

With `CC(C(O)c1ccccc1)n1c(=S)[nH]c2ccccc2c1=O` (centres unmarked) [Compound 4, 3-(1-hydroxy-1-phenylpropan-2-yl)-2-thioxo-2,3-dihydroquinazolin-4(1H)-one], the IC50 at EGFR was 1.39 ± 0.14 µM; in the data set with MCF-7 [1], 25.55 ± 0.02 µM; in the data set on MDA-MB-231 [2], 35.24 ± 0.24 µM; with HCT-116 [3] it was 23.49 ± 0.05 µM; with HepG-2 [4] it was 22.7 ± 0.61 µM.
